Measured values as given in US9617251B2, “Indanylaminopyridylcyclopropanecarboxylic acids, pharmaceutical compositions and uses thereof” (BOEHRINGER INGELHEIM INTERNATIONAL GMBH, priority 2015, dated 2017).
≈ marks a conversion by molar mass, not a printed value.

Assays:
[1] = target: T1, cytochrome P450 2C8-isoenzyme (Homo sapiens, UniProt P10632); assay: Inhibition of CYP-2C8 (deethylation of amodiaquine, human liver microsomes); assay type: in vitro ADME; details: CYP-2C8, human liver microsomes, amodiaquine 1 μM, 37° C.
T1 construct: from tissue; host or cells: human liver microsomes
T1 sequence (P10632 1-490): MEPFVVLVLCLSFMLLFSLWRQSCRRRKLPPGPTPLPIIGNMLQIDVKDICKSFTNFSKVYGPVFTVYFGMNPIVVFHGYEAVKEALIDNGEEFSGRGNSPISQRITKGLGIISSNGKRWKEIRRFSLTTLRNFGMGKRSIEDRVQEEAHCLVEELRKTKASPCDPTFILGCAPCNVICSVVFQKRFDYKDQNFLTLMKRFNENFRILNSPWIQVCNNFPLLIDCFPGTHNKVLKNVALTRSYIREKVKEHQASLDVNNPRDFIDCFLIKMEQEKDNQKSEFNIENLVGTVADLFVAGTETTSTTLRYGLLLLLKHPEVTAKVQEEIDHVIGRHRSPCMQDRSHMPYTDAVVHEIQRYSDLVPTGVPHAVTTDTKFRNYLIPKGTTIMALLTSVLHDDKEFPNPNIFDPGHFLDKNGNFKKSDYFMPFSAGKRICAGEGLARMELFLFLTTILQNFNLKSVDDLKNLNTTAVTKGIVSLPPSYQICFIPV
Protocol: The inhibition of cytochrome P450 2C8-isoenzyme catalyzed deethylation of amodiaquine by the test compound is assayed at 37° C. with human liver microsomes. All assays are carried out on a robotic system in 96 well plates. The final incubation volume contains TRIS buffer (0.1 M), MgCl2 (5 mM), human liver microsomes (0.05 mg/mL), amodiaquine (1 μM) and the test compound at five different concentrations or no compound (high control) in duplicate (e.g. highest concentration 10-50 μM with subsequent serial 1:4 dilutions). Following a short preincubation period, reactions are started with the cofactor (NADPH, 1 mM) and stopped by cooling the incubation down to 8° C. and subsequently by addition of one volume of acetonitrile. An internal standard solution—the stable isotope d5-desethylamodiaquine—is added after quenching of incubations. Peak area analyte (=metabolite formed) and internal standard is determined by LC-MS/MS. The resulting peak area ratio analyte to internal standard in these incubations is compared to a control activity containing no test compound. Within each of the assay runs, the IC50 of a positive control inhibitor (Montelukast) is determined. Experimental IC50 values are calculated by least square regression according to the following equation: % control activity=(100% control activity/(1+(I/IC50)S))−B with I=inhibitor concentration; S=slope factor; B=background activity (lower plateau of the inhibition curve)
(§1) If the inhibition of the reaction is already >50% at the lowest concentration of the test compound, the IC50 is assigned “<lowest concentration tested” (usually <0.4 μM). If the inhibition of the reaction is still <50% at the highest concentration of the test compound, the IC50 is assigned “>highest concentration tested” (usually >50 μM).

human GPR40 receptor = human GPR40 receptor (Homo sapiens, UniProt O14842); assay: IP1 accumulation measurements using the IPOne assay system (1321N1 cells stably expressing human GPR40 receptor); assay type: cell-based; details: 1321N1 cells expressing human GPR40, 1 h stimulation at 37° C.
Protocol: IP1 accumulation measurements using the IPOne assay system—1321N1 cells stably expressing human GPR40 receptor (Euroscreen, Belgium) are seeded 24 h before the assay in white 384-well plates in culture medium containing 10% FCS, 1% Na-Pyruvate and 400 μg/mL G418. IP1 is assayed according to the manufacturer's description (Cisbio Bioassays, France). In brief, the assay is started by substitution of the culture medium by stimulation buffer (Hepes 10 mM, CaCl2 1 mM, MgCl2 0.5 mM, KCl 4.2 mM, NaCl 146 mM, glucose 5.5 mM and LiCl 50 mM, pH 7.4). Cells are stimulated for 1 h at 37° C., 5% CO2 by addition of the compounds that are diluted in stimulation buffer containing LiCl. Assays are stopped by adding HTRF-conjugates (IP1-d2 and Anti-IP1 cryptate Tb) and lysis buffer, provided by the manufacturer. After an incubation time of 1 h at room temperature plates are measured using an EnVision™, Perkin Elmer. The obtained fluorescence ratios at 665/615 […] are then used to calculate the pEC50 values using Assay Explorer 3.3 Software (Accelrys, Inc.) by interpolation using an IP1 reference curve and subsequent sigmoidal curve fitting allowing for a variable hill slope.

[2] = target: T2, cytochrome P450 2C9-isoenzyme (Homo sapiens, UniProt P11712); assay: Inhibition of CYP-2C9 (hydroxylation of diclofenac, human liver microsomes); assay type: in vitro ADME; details: CYP-2C9, human liver microsomes, diclofenac 10 μM, 37° C.
T2 construct: from tissue; host or cells: human liver microsomes
Protocol: The inhibition of cytochrome P450 2C9-isoenzyme catalyzed hydroxylation of diclofenac by the test compound is assayed at 37° C. with human liver microsomes. All assays are carried out on a robotic system in 96 well plates. The final incubation volume contains TRIS buffer (0.1 M), MgCl2 (5 mM), human liver microsomes (0.1 mg/mL), diclofenac (10 μM) and the test compound at five different concentrations or no compound (high control) in duplicate (e.g., highest concentration 10-50 μM with subsequent serial 1:4 dilutions). Following a short preincubation period, reactions are started with the cofactor (NADPH, 1 mM) and stopped by cooling the incubation down to 8° C. and subsequently by addition of one volume of acetonitrile. An internal standard solution—the stable isotope ^13C6-hydroxydiclofenac—is added after quenching of incubations. Peak area analyte (=metabolite formed) and internal standard is determined by LC-MS/MS. The resulting peak area ratio analyte to internal standard in these incubations is compared to a control activity containing no test compound. Within each of the assay runs, the IC50 of a positive control inhibitor (sulfaphenazole) is determined. Experimental IC50 values are calculated by least square regression according to the following equation: % control activity=(100% control activity/(1+(I/IC50)S))−B with I=inhibitor concentration; S=slope factor; B=background activity (lower plateau of the inhibition curve)
as §1

[3] = Aqueous solubility in buffer vs acetonitrile/water (1/1), LC-UV; assay type: physicochemical; details: kinetic from dmso stock, buffer pH 2.2, 24 h shaking, 2.5% DMSO
Protocol: The aqueous solubility of the compounds of the invention is determined by comparing the amount dissolved in buffer to the amount in an acetonitrile/water (1/1) solution. Starting from a 10 mM DMSO stock solution aliquots are diluted with acetonitrile/water (1/1) or buffer, respectively. After 24 h of shaking, the solutions are filtrated and analyzed by LC-UV. The amount dissolved in buffer is compared to the amount in the acetonitrile solution.
Solubility is usually being measured from 0.001 to 0.125 mg/mL at a DMSO concentration of 2.5%. If more than 90% of the compound is dissolved in buffer, the value is marked with “>”.

T2 sequence (P11712 whole entry): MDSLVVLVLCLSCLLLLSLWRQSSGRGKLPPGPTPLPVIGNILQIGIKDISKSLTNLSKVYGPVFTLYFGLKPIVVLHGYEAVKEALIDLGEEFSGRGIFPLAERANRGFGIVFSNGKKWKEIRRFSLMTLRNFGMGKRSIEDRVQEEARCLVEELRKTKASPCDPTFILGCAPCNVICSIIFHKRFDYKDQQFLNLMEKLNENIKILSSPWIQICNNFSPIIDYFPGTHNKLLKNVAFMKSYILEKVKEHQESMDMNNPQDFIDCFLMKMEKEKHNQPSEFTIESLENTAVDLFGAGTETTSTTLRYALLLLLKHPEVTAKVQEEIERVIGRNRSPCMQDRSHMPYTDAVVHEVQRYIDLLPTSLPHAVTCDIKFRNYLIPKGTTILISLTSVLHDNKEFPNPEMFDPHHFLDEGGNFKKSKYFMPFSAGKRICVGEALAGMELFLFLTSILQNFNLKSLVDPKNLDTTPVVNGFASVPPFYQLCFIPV
Chain of human GPR40 receptor (O14842 whole entry): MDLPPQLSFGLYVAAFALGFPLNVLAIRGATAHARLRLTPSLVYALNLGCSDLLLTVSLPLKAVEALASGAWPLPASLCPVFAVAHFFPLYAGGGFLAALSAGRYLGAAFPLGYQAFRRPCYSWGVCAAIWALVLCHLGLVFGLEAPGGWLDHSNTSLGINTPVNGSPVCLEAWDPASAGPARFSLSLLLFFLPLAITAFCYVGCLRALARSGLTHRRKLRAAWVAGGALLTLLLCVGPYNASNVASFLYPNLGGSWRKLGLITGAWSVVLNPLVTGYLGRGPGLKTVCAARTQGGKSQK

SMILES	IC50 [1]	EC50 (human GPR40 receptor)	IC50 [2]	solubility at 24 h [3]
Cc1cc(-c2nnnn2CC(C)(C)O)cc(C)c1-c1ccc(F)c2c1CC[C@H]2Nc1ccc([C@H]2C[C@@H]2C(=O)O)cn1 [Example 24]	> 50 µM	0.318 µM	> 50 µM	103 µg/mL (≈ 185 µM)
COc1c(F)c(F)c(-c2ccc(F)c3c2CC[C@H]3Nc2ccc([C@H]3C[C@@H]3C(=O)O)cn2)c(F)c1F [Example 76]	30 µM	0.003 µM	40 µM	104 µg/mL (≈ 212 µM)
Cc1cc(OCC2(C)COC2)cc(C)c1-c1ccc(F)c2c1CC[C@H]2Nc1ccc([C@H]2C[C@@H]2C(=O)O)cn1 [Example 33]	26 µM	0.014 µM	> 50 µM	103 µg/mL (≈ 199 µM)
COc1cc(OC)c(Cl)c(-c2ccc(F)c3c2CC[C@H]3Nc2ccc([C@H]3C[C@@H]3C(=O)O)cn2)c1Cl [Example 53]	11 µM	0.013 µM	14 µM	76 µg/mL (≈ 147 µM)
Cc1cccc(C)c1-c1ccc(F)c2c1CC[C@H]2Nc1ccc([C@H]2C[C@@H]2C(=O)O)cn1 [Example 17]	34 µM	0.013 µM	36 µM	65 µg/mL (≈ 156 µM)
Cc1cc(OCc2ccccc2)cc(C)c1-c1ccc(F)c2c1CC[C@H]2Nc1ccc([C@H]2C[C@@H]2C(=O)O)cn1 [Example 32]	12 µM	0.035 µM	24 µM	< 1 µg/mL
COc1cc(OC)c(F)c(-c2ccc(F)c3c2CC[C@H]3Nc2ccc([C@H]3C[C@@H]3C(=O)O)cn2)c1F [Example 57]	19 µM	0.107 µM	48 µM	99 µg/mL (≈ 204 µM)
COc1cc(OC)c(-c2ccc(F)c3c2CC[C@H]3Nc2ccc([C@H]3C[C@@H]3C(=O)O)cn2)c(OC)c1 [Example 48]	> 50 µM	0.427 µM	> 50 µM	> 107 µg/mL
Cc1cc(CO)cc(C)c1-c1ccc(F)c2c1CC[C@H]2Nc1ccc([C@H]2C[C@@H]2C(=O)O)cn1 [Example 28]	> 50 µM	0.071 µM	> 50 µM	87 µg/mL (≈ 195 µM)
Cc1cc(OCC2CCOC2)cc(C)c1-c1ccc(F)c2c1CC[C@H]2Nc1ccc([C@H]2C[C@@H]2C(=O)O)cn1 (stereo partly drawn) [Example 16]	46 µM	0.011 µM	> 50 µM	110 µg/mL (≈ 213 µM)
O=C(O)[C@H]1C[C@@H]1c1ccc(N[C@@H]2CCc3c(-c4c(F)cccc4F)ccc(F)c32)nc1 [Example 55]	> 50 µM	0.208 µM	> 50 µM	73 µg/mL (≈ 172 µM)
Cc1cc(-c2ccn(C)c(=O)n2)cc(C)c1-c1ccc(F)c2c1CC[C@H]2Nc1ccc([C@H]2C[C@@H]2C(=O)O)cn1 [Example 71]	18 µM	0.006 µM	> 50 µM	121 µg/mL (≈ 231 µM)
N#Cc1cccc(C#N)c1-c1ccc(F)c2c1CC[C@H]2Nc1ccc([C@H]2C[C@@H]2C(=O)O)cn1 [Example 44]	> 50 µM	4.13 µM	> 50 µM	> 158 µg/mL
Cc1cc(-c2cc(=O)n(C)cn2)cc(C)c1-c1ccc(F)c2c1CC[C@H]2Nc1ccc([C@H]2C[C@@H]2C(=O)O)cn1 [Example 45]	24 µM	0.005 µM	> 50 µM	86 µg/mL (≈ 164 µM)
Cc1ccc(Cl)c(-c2ccc(F)c3c2CC[C@H]3Nc2ccc([C@H]3C[C@@H]3C(=O)O)cn2)c1Cl [Example 51]	12 µM	0.007 µM	17 µM	56 µg/mL (≈ 119 µM)
Cc1cc(OCC(C)(C)O)cc(C)c1-c1ccc(F)c2c1CC[C@H]2Nc1ccc([C@H]2C[C@@H]2C(=O)O)cn1 [Example 29]	> 50 µM	0.017 µM	> 50 µM	111 µg/mL (≈ 220 µM)
Cc1cc(OCC2(O)CCSCC2)cc(C)c1-c1ccc(F)c2c1CC[C@H]2Nc1ccc([C@H]2C[C@@H]2C(=O)O)cn1 [Example 73]	20 µM	0.017 µM	45 µM	89 µg/mL (≈ 158 µM)
O=C(O)[C@H]1C[C@@H]1c1ccc(N[C@@H]2CCc3c(-c4c(F)cc(OC5CC5)cc4F)ccc(F)c32)nc1 [Example 60]	25 µM	0.061 µM	9 µM	68 µg/mL (≈ 142 µM)
Cc1cc(-c2nnn[nH]2)cc(C)c1-c1ccc(F)c2c1CC[C@H]2Nc1ccc([C@H]2C[C@@H]2C(=O)O)cn1 [Example 25]	4 µM	0.177 µM	> 50 µM	67 µg/mL (≈ 138 µM)
Cc1cc(-c2nnn(C)n2)cc(C)c1-c1ccc(F)c2c1CC[C@H]2Nc1ccc([C@H]2C[C@@H]2C(=O)O)cn1 [Example 3, (1S,2S)-2-(6-{(R)-4-[2,6-Dimethyl-4-(2-methyl-2H-tetrazol-5-yl)-phenyl]-7-fluoro-indan-1-ylamino}-pyridin-3-yl)-cyclopropanecarboxylic acid]	19 µM	0.004 µM	> 50 µM	91 µg/mL (≈ 183 µM)
Cc1cc(-c2nnn(CC(C)(C)O)n2)cc(C)c1-c1ccc(F)c2c1CC[C@H]2Nc1ccc([C@H]2C[C@@H]2C(=O)O)cn1 [Example 14]	45 µM	0.004 µM	> 50 µM	83 µg/mL (≈ 149 µM)
